Results taken from patent US11478551B2, “Long-acting adrenomedullin derivative” (University of Miyazaki, priority 2015, dated 2022).

Assays:
[1] = test system: TNBS-induced colitis models; assay: 2,4,6-trinitrobenzenesulfonic acid (TNBS)-induced colitis model; format: in vivo; settings: 1 nmol/kg subcutaneous, rat
Protocol: 7-week-old male Wistar rats were acclimatized for 1 week. […] Fasting was carried out for 24 hours concurrently with the subcutaneous administration to remove stool from the body. Colitis models were prepared by procedures described below. The concentration of TNBS (Nacalai Tesque, Inc.) was adjusted to 30 mg/500 μL (in a 50% aqueous ethanol solution). 50 mg of pentobarbital was intraperitoneally administered, and a polyethylene catheter was inserted by 8 cm from the anus under anesthesia while slowly rotated, followed by injection of 500 μL of the drug solution (day 1). Then, the inverted state was maintained for 2 minutes. The body weight and the form of diarrhea were evaluated every day. 14 days later, 50 mg of pentobarbital was intraperitoneally administered, and blood collection from the heart and excision of the large intestine were carried out under anesthesia. The length and weight of the excised intestinal tract were measured and compared between the groups. […] In the diagram, (a) depicts the day on which the compound (8) or physiological saline was subcutaneously administered and fasting was started, and (b) depicts the day on which TNBS was administered.

wound models = assay: Wound model; format: in vivo, mouse; settings: 1 nmol/kg subcutaneous single dose, BALB/c-nu/nu mice
Protocol: 5-week-old male BALB/c-nu/nu mice (Charles River Laboratories Japan, Inc.) were purchased and acclimatized for 1 week. Then, 5 mg of pentobarbital was intraperitoneally administered to each mouse for anesthesia. The skin was disinfected using ethanol for disinfection. The skin of the back was pulled with fingers with the mouse in the lateral position, and pressed and cut with a round knife for skin biopsy (disposable biopsy punch with plunger system) from one side toward the other side on a disinfected mat for drafting to prepare two defective injuries each having a diameter of 6 mm. […] Physiological saline was administered as a vehicle to a control group. A dressing was applied to cover the back including the wound sites. Change in the wound areas were observed over time.

GL-2-branched CH3O-PEG (60k)-CH2-^αNH-(h.AM (1-52)) [Compound (8)]
pathological changes of the large intestine (autopsy report) [1]: evidently fewer | weight loss due to the development of colitis [1]: improved | decrease in the intestinal tract length of the large intestine compared to the vehicle control group ([1]; 14 days later): evidently suppressed | increase in the weight of the large intestine compared to the vehicle control group ([1]; 14 days later): evidently suppressed | reduction in the wound areas compared to the vehicle control group (wound models): faster
